Chromatographic logP data for eight molecules are collected here from patent US20070244111A1, “Pyrazolopyrimidines” (priority 2003, published 2007).

Structures are written as SMILES. Like-named read-outs stand apart in the source and are kept apart here.

The series can be described thus: log P determination by HPLC (EEC Directive 79/831 Annex V. A8). The format is physicochemical. The note with it: HPLC gradient method. The procedure: The log P values were determined in accordance with EEC Directive 79/831 Annex V. A8 by HPLC (gradient method, acetonitrile/0.1% aqueous phosphoric acid).
[1] abbreviates: gradient of acetonitrile/0.1% aqueous phosphoric acid, acetonitrile/0.1% aqueous phosphoric acid (pH 2.3), read-out: HPLC: log P.

Regarding `C=Cc1cnn2c(N3CCC(C)CC3)c(-c3ccc(F)cc3Cl)c(Cl)nc12` [Example 1, 3-vinyl-5-chloro-6-(2-chloro-4-fluorophenyl)-7-(4-methylpiperidino)pyrazolo[1 ,5a]pyrimidine], the chromatographic logP under setting [1] turned out to be 6.07.
In the case of `C#Cc1cnn2c(N3CCC(C)CC3)c(-c3ccc(F)cc3Cl)c(Cl)nc12` [Example 9], the chromatographic logP under setting [1] is 5.31.
On to `CC(C)/C=C/c1cnn2c(N3CCC(C)CC3)c(-c3ccc(F)cc3Cl)c(Cl)nc12` [Example 10], for which the chromatographic logP under setting [1] worked out at 7.21.
Consider `CC(Nc1c(-c2ccccc2Cl)c(Cl)nc2c(/C(Cl)=C/C=O)cnn12)C(C)(C)C` (centres unmarked) [Example 29], for which the chromatographic logP (acetonitrile/0.1% aqueous phosphoric acid (pH 2.3), read-out: HPLC: log P) was 5.98.
On to `N#Cc1cnn2c(N3CCOCC3)c(-c3ccc(F)cc3Cl)c(Cl)nc12` [Example 141], for which the chromatographic logP under setting [1] worked out at 3.33.
For the molecule `CC1CCN(c2c(-c3ccc(F)cc3Cl)c(Cl)nc3c(C=O)cnn23)CC1` [Example 142, 3-formyl-5-chloro-6-(2-chloro-4-fluorophenyl)-7-(4-methylpiperidino)pyrazolo[1,5-a]pyrimidine], the chromatographic logP (gradient of acetonitrile/0.1% aqueous phosphoric acid, pH 2.3, heading: HPLC: log P) came out at 4.53.
As for `O=Cc1cnn2c(N3CCOCC3)c(-c3ccc(F)cc3Cl)c(Cl)nc12` [Example 143], the chromatographic logP under setting [1] was 2.94.
The same measure, in the same setting: with `N#Cc1cnn2c(Cl)c(-c3ccc(F)cc3Cl)c(Cl)nc12` [Example 145, 3-cyano-5,7-dichloro-6-(2-chloro-4-fluorophenyl)pyrazolo[1 ,5-a]pyrimidine] the figure was 3.48.
